# Assay results taken from publication PMC7669869, “AdipoR1/AdipoR2 dual agonist recovers nonalcoholic steatohepatitis and related fibrosis via endoplasmic reticulum-mitochondria axis” (Nature Communications, 2020).
# “Also recorded” adds a separate entry of the source. Non-standard residues stand in square brackets, D forms with d. Residues, ends and D or L forms follow the SMILES beside them. Nva = CCC[C@H](N)C(=O)O
# Key:
# [1] = test system: AdipoR1 and AdipoR2 in HepG2 cells; assay: RNA interference (AdipoR1/AdipoR2 siRNA) in PA induced HepG2: PPARα, PPARγ mRNA and protein; type: cell-based, human; settings: PA induced HepG2, 200 μM JT003; in words
# Procedure: AdipoR1 and AdipoR2 siRNA as well as mock siRNA were chemically synthesized (GenePharma, China) and transfected into 60–70% confluent HepG2 and LX2 cells using Lipofectamine 3000 (ThermoFisher Scientific, USA). Dilution of siRNA and Lipofectamine 3000 reagents as well as the transfection of cells were performed following the manufacturer’s protocol. For HepG2 cell model, 5E5 cells were plated in 6-well plates and transfected with 5 μL of 20 μM stock siRNA. At 48 h following transfection, the cells were processed for 0.25 mM PA and/or 200 μM JT003 treated for another 24 h. BSA was used as the negative control. […]
# Liver total RNA was extracted by using Trizol reagent following the manufacture’s instruction (TransGen Biotech, China). The concentration of RNA was measured by Nanodrop 2000 (ThermoFisher Scientific, USA). cDNA was transcribed from 10ug total RNA with First Strand cDNA synthesis Super Mix (TransGen Biotech, China). […] Reference gene β-actin was used for data normalization. mRNA expression was analyzed with specific primers listed in Supplementary Table 2.
# Total protein was isolated from cells or liver samples using RIPA lysis buffer (50.0 mM Tris-HCl (pH = 8.0), 150.0 mM NaCl, 0.02% NaN3, 0.1% SDS, 1% NP-40, 0.5% deoxysodium cholate, 1 mM EDTA, […]). The protein concentration was quantified with BCA kit (Pierce, ThermoFisher Scientific, USA). […]
# [2] = test system: αSMA expression in LX2 cells; assay: Western blotting for αSMA expression in LX2; type: cell-based, human; settings: LX2, 200 μM peptide, 48 h; western blot; in words
# Procedure: Hepatoma carcinoma cell line HepG2 and human hepatic activated stellate cell line LX2 used in this study were purchased from Type Culture Collection of the Chinese Academy of Sciences (Shanghai, China). Cells were cultured in Dulbecco’s modified Eagle’s medium (DMEM) with 10% fetal bovine serum (FBS), supplemented with 1% penicillin–streptomycin (ThermoFisher Scientific, USA) at 37 °C in a humidified atmosphere of 5% CO2. In PA (Sigma, USA) induced lipid accumulation cell model, HepG2 cells were seeded into a 6-well plate at 5E5 cells per well. 0.25 mM PA and/or 200 μM candidate peptides were co-incubated with cells for 24 h. Then Oil Red O staining was performed to evaluate the accumulation of lipid droplets. BSA (Sigma, USA) was used in this experiment as the negative control. […]
# Total protein was isolated from cells or liver samples using RIPA lysis buffer (50.0 mM Tris-HCl (pH = 8.0), 150.0 mM NaCl, 0.02% NaN3, 0.1% SDS, 1% NP-40, 0.5% deoxysodium cholate, 1 mM EDTA, […]). The protein concentration was quantified with BCA kit (Pierce, ThermoFisher Scientific, USA). […] After incubation with the secondary antibody, proteins were detected by enhanced chemiluminescence (Glarity^TM Western ECL Substrate, Bio-Rad, USA) and the signals were recorded and quantified with Tanon-Image Software (Shanghai, China). […]
# [3] = test system: liver gene expression of CCl4 induced liver fibrosis mice; assay: CCl4 mice: liver RNAseq gene expression analysis; type: in vivo, mouse; settings: CCl4 + JT003 group
# Procedure: Male mice liver fibrosis was induced by intraperitoneal injection of 20% CCl4 (Sigma, USA) diluted in corn oil (Aladdin, China) every 3 days for 6 weeks (n = 6; 5 ml kg^−1 body weight). Mice injected with equivalent volume of corn oil serves as control group (n = 6). Liver fibrosis mice treated with JT003 for 3 weeks were used to evaluated the pharmacological effects (n = 6; 500 μg kg^−1; daily intraperitoneal injection).
# The positive area of all stained liver slices was quantified by ImageJ (https://imagej.nih.gov/ij/). All data in this study were shown as the mean ± SEM (Standard Error). Student’s two-tailed t test was used to compare the mean of two groups of samples. All statistical analyses were performed with GraphPad Prism software (https://www.graphpad.com/). Significance was considered when p < 0.05. In RNAseq gene expression analysis, false discovery rate <0.01, q value <0.001. The confidence level was 95%.
compound,measurement,setting,value
CCC[C@H](NC(=O)[C@@H]1CCCN1)C(=O)N[C@@H](CC(C)C)C(=O)N[C@@H](Cc1ccc(O)cc1)C(=O)N[C@@H](Cc1ccc(O)cc1)C(=O)N[C@@H](Cc1ccccc1)C(=O)N[C@@H](C)C(N)=O [JT003] (H-P[Nva]LYYFA-NH2),effect of AdipoR1 and/or AdipoR2 siRNA on JT003 mediated PPARα and PPARγ expression,[1],blocked the JT003 effects on mediating PPARα and PPARγ expression
same,expression level of αSMA in LX2 cells,[2],significantly decrease; also recorded: showed the best performance in inhibiting fibroblast formation
same,Akr1c18 liver RNAseq expression,[3]; Figure 6c,0.1038
same,Bco1 liver RNAseq expression,[3]; Figure 6c,0.5514
same,Brca1 liver RNAseq expression,[3]; Figure 6c,-0.5686
same,C3ar1 liver RNAseq expression,[3]; Figure 6c,-0.04576
same,C5ar1 liver RNAseq expression,[3]; Figure 6c,-0.1308
same,Ccl9 liver RNAseq expression,[3]; Figure 6c,1.215
same,Cxcl1 liver RNAseq expression,[3]; Figure 6c,1.2887
same,Fbn1 liver RNAseq expression,[3]; Figure 6c,-0.3979
same,Fbn2 liver RNAseq expression,[3]; Figure 6c,-1.301
same,Nupr1 liver RNAseq expression,[3]; Figure 6c,0.5866
same,Ptges liver RNAseq expression,[3]; Figure 6c,-0.4949
same,Rdh11 liver RNAseq expression,[3]; Figure 6c,0.8089
same,Robo1 liver RNAseq expression,[3]; Figure 6c,-0.03152
same,Xcr1 liver RNAseq expression,[3]; Figure 6c,-0.1135
same,Alg8 liver RNAseq expression,[3]; Figure 7c,0.5944
same,Anxa5 liver RNAseq expression,[3]; Figure 7c,1.645
same,Atp2b2 liver RNAseq expression,[3]; Figure 7c,-0.4202
same,Atp7b liver RNAseq expression,[3]; Figure 7c,0.2148
same,Ces3b liver RNAseq expression,[3]; Figure 7c,2.066
same,Creb3l2 liver RNAseq expression,[3]; Figure 7c,0.1072
same,Dhrs9 liver RNAseq expression,[3]; Figure 7c,-0.6021
same,Elovl3 liver RNAseq expression,[3]; Figure 7c,0.433
same,Fitm1 liver RNAseq expression,[3]; Figure 7c,-0.3372
same,Fmo2 liver RNAseq expression,[3]; Figure 7c,0.8831
same,Fndc5 liver RNAseq expression,[3]; Figure 7c,-0.7212
same,Grik5 liver RNAseq expression,[3]; Figure 7c,0.5888
same,Mia2 liver RNAseq expression,[3]; Figure 7c,0.7875
same,Myo5a liver RNAseq expression,[3]; Figure 7c,-0.7959
same,Nat8f5 liver RNAseq expression,[3]; Figure 7c,0.6064
same,Nsdhl liver RNAseq expression,[3]; Figure 7c,0.8949
same,Nucb2 liver RNAseq expression,[3]; Figure 7c,0.4814
same,Pdilt liver RNAseq expression,[3]; Figure 7c,0.5899
same,Pkmyt1 liver RNAseq expression,[3]; Figure 7c,0.09691
same,Prom1 liver RNAseq expression,[3]; Figure 7c,-0.03152
same,Serpina1e liver RNAseq expression,[3]; Figure 7c,3.324
same,Slc37a2 liver RNAseq expression,[3]; Figure 7c,-0.4559
same,Soat1 liver RNAseq expression,[3]; Figure 7c,-0.1079
same,Sorl1 liver RNAseq expression,[3]; Figure 7c,-0.8539
same,Srd5a2 liver RNAseq expression,[3]; Figure 7c,-0.09691
same,Trim59 liver RNAseq expression,[3]; Figure 7c,-0.4949
same,Zdhhc2 liver RNAseq expression,[3]; Figure 7c,-0.3468
same,Adamts5 liver RNAseq expression,[3]; Figure 5d,-0.4318
same,Adamtsl1 liver RNAseq expression,[3]; Figure 5d,-0.9208
same,Anxa2 liver RNAseq expression,[3]; Figure 5d,1.107
same,Ckap4 liver RNAseq expression,[3]; Figure 5d,-0.05061
same,Col1a1 liver RNAseq expression,[3]; Figure 5d,0.8745
same,Col1a2 liver RNAseq expression,[3]; Figure 5d,0.934
same,Col3a1 liver RNAseq expression,[3]; Figure 5d,1.043
same,Col6a3 liver RNAseq expression,[3]; Figure 5d,0.1367
same,Lgals3 liver RNAseq expression,[3]; Figure 5d,0.941
same,Lpl liver RNAseq expression,[3]; Figure 5d,1.015
same,Ltbp2 liver RNAseq expression,[3]; Figure 5d,-0.2757
same,Mmp12 liver RNAseq expression,[3]; Figure 5d,-0.1805
same,Nid1 liver RNAseq expression,[3]; Figure 5d,0.5877
same,Nid2 liver RNAseq expression,[3]; Figure 5d,0.03342
same,Npnt liver RNAseq expression,[3]; Figure 5d,-1.222
same,Serpine2 liver RNAseq expression,[3]; Figure 5d,0.143
same,Slpi liver RNAseq expression,[3]; Figure 5d,0.6998
same,Tubb4b liver RNAseq expression,[3]; Figure 5d,1.687
